Key:
S. Agalactiae DltA = target: T1, S. Agalactiae DltA (Streptococcus agalactiae serotype III, UniProt Q8VM67); assay: biochemical
T1 sequence (Q8VM67 1-511): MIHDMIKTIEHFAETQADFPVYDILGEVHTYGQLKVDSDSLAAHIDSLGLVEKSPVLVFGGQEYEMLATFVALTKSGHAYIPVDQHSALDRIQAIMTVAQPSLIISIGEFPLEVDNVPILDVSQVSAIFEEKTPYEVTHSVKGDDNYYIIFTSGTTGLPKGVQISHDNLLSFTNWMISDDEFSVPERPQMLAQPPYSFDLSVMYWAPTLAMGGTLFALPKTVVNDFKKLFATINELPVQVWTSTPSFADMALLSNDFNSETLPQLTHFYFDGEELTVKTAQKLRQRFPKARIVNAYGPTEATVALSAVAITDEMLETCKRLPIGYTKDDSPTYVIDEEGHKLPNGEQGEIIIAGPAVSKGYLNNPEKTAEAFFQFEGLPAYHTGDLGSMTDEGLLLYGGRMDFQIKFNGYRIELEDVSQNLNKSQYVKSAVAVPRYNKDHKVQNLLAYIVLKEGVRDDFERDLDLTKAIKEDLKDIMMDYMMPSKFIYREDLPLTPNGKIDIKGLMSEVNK
Protocol: (§1) To this end, recombinant proteins DltA were expressed and purified after cloning of the genes of S. aureus, E. faecalis, E. faecium and S. agalactiae as described thereafter. The capacity of the compounds of the invention to inhibit DltA enzymatic activity was assessed using the DltA assays as described below: • The dltA gene was amplified from chromosomal DNA of S. aureus, E. faecalis, E. faecium and S. agalactiae and introduced into E. coli BL21 (Invitrogen, Carlsbad, CA) following manufacturer's instruction. Bacteria were grown at 37°C under aerobic conditions and isopropyl-beta-D-thiogalactopyranoside (IPTG) was added to 0.5-1 mM when OD600 of the bacterial culture had reached 0.5. After a further incubation for 3 hours, cells were harvested by centrifugation. Purification of the recombinant DltA protein was performed by affinity chromatography on nickel-nitrilotriacetic acid (Ni-NTA) column following manufacturer's instructions (Qiagen). Fractions containing recombinant DltA protein were adjusted to 50% glycerol and stored at -20°C until use.
(§2) The binding potency of the inhibitors against DltA enzyme was assessed by IC50 determination in an in vitro DltA activity assay. The assay buffer "AB" contained 50 mM Hepes pH8.0, 10mM MgCl2, 50mM KCI, 0.012% Triton-X100, 10mM DTT and 100nM Myelin-basic protein. The following components were added in a white polystyrene Costar plate up to a final volume of 30µL: 3µL DMSO, or inhibitor dissolved in DMSO and 27µL DltA enzyme in AB. After 30min of preincubation at room temperature, 30µL of Substrates mix in AB were added in each well to a final volume of 60µL. This reaction mixture was then composed of DltA (produced in house from S. aureus, E. faecalis, E. faecium and S. agalactiae), 0.5mM D-Alanine (Sigma), 0.5-5µM ATP (Sigma) and 0.05 u/ml inorganic pyrophosphatase (Sigma) in assay buffer. After typically 1-2hours of incubation at room temperature (conversion rate around 30%), 30µL of the revelation mix were added to a final volume of 90µL, including the following constituents at the respective final concentrations: 10000 u/ml luciferase (Sigma), 30µM D-luciferin (Sigma), 100µM N-acetylcysteamine (Aldrich). Luminescence intensity was immediately measured on a Fluostar Optima (BMG) (excitation 360nm, emission 520nm) and converted into inhibition percentages.
(§3) For compounds interfering with the luminescent signal (quenching), the same experiment without DltA enzyme was performed to allow quenching determination and correction.

E. feacalis DltA = target: T2, E. feacalis DltA (Enterococcus faecalis, UniProt Q830N0); assay: biochemical
T2 sequence (Q830N0 1-506): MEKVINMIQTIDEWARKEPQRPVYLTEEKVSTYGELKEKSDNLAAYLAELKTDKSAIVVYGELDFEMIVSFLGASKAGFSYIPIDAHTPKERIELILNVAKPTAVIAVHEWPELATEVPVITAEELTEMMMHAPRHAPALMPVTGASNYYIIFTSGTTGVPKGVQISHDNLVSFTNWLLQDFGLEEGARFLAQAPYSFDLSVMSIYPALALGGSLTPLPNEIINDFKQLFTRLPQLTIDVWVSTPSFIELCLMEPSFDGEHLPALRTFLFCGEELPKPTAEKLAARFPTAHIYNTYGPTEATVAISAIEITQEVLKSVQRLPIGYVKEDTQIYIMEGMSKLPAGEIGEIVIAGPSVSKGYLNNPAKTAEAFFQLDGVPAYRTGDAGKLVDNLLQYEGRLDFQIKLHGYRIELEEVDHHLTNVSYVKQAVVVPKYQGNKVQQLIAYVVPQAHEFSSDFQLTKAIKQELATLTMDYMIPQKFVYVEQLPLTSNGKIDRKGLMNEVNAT
Protocol: as §1, §2, §3

E. feacium DltA = target: T3, E. feacium DltA (Enterococcus faecium, UniProt Q3XZT7); assay: in vitro DltA activity assay (luminescence, IC50 determination); format: biochemical; conditions: recombinant DltA, 30min preincubation at room temperature, 0.5mM D-Alanine, 0.5-5µM ATP; read-out: E. feacium DltA IC50
T3 sequence (Q3XZT7 1-504): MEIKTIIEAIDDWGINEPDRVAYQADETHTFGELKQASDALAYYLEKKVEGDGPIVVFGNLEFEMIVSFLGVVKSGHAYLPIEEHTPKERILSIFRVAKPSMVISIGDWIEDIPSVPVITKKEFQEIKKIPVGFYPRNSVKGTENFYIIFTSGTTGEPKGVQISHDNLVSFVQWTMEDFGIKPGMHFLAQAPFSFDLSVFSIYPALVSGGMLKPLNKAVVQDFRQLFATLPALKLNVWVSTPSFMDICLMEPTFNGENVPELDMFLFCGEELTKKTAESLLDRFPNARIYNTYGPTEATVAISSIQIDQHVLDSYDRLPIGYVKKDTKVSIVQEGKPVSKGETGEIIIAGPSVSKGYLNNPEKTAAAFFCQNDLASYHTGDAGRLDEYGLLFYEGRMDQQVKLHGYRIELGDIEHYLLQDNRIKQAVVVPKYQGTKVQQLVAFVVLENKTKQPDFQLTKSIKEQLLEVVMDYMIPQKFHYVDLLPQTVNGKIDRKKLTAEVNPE
Protocol: as §1, with “The effect of the compounds of the invention on DltA enzymes has been based on the measure of their inhibition of DltA activity in vitro. To” for “To”
as §2, §3

S. aureus DltA = target: T4, S. aureus DltA (Staphylococcus aureus, UniProt Q2FZW6); assay: as above; format: biochemical
T4 construct: made in house; host or cells: E. coli BL21
T4 sequence (Q2FZW6 1-485): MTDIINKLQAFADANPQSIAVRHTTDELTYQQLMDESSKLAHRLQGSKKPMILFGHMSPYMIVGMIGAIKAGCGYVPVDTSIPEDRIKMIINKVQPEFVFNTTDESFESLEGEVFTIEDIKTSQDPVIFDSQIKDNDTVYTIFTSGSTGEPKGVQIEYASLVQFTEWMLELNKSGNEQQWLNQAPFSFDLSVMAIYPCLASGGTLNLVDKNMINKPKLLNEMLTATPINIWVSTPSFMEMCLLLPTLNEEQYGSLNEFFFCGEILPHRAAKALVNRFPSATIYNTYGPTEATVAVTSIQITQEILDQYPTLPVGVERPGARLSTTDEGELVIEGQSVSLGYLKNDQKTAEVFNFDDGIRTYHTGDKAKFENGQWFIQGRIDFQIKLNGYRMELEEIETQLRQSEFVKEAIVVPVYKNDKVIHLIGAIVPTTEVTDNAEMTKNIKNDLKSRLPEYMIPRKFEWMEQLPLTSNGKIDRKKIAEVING
Protocol: as §1, with “The effect of the compounds of the invention on DltA enzymes has been based on the measure of their inhibition of DltA activity in vitro. To” for “To”
as §2, §3

Row | Structure (SMILES) | IC50 (S. Agalactiae DltA) [nM] | IC50 (E. feacalis DltA) [nM] | IC50 (E. feacium DltA) [nM] | IC50 (S. aureus DltA) [nM]
1 | O=c1[nH]cnc2c(-c3ccc4c(c3)ncn4C3CCCCC3)cn(CCCCCO)c12 [Example 68, 7-(1-Cyclohexyl-1H-benzimidazol-5-yl)-5-(5-hydroxy-pentyl)-3,5-dihydro-pyrrolo[3,2-d]pyrimidin-4-one] | 4500 | 320 | 730 | 290
2 | O=c1[nH]cnc2c(-c3ccc4c(c3)ncn4C3CCCCC3)cn(C3CCNCC3)c12 [Example 73, 7-(1-Cyclohexyl-1H-benzimidazol-5-yl)-5-piperidin-4-yl-3,5-dihydro-pyrrolo[3,2-d]pyrimidin-4-one] | 1000 | 61 | 280 | 72
3 | O=c1[nH]cnc2c(-c3ccc4c(c3)ncn4C3CCCCC3)cn([C@H]3CC[C@@H](CO)CC3)c12 [Example 74, 7-(1-Cyclohexyl-1H-benzimidazol-5-yl)-5-[cis-(4-hydroxymethyl-cyclohexyl)]-3,5-dihydro-pyrrolo[3,2-d]pyrimidin-4-one] | 1100 | 93 | 140 | 150
4 | O=c1[nH]cnc2c(-c3ccc4c(c3)ncn4C3CCCCC3)cn([C@H]3CCCNC3)c12 [Example 76, 7-(1-Cyclohexyl-1H-benzimidazol-5-yl)-5-(S)-piperidin-3-yl-3,5-dihydro-pyrrolo[3,2-d]pyrimidin-4-one] | 1200 | 69 | 460 | 67
5 | O=c1[nH]cnc2c(-c3ccc4c(c3)ncn4C3CCCCC3)cn(C3CCNC3)c12 (centres unmarked) [Example 77, 7-(1-Cyclohexyl-1H-benzimidazol-5-yl)-5-pyrrolidin-3-yl-3,5-dihydro-pyrrolo[3,2-d]pyrimidin-4-one] | 1600 | 130 | 510 | 93
6 | CN(C)CCCn1cc(-c2ccc3c(c2)ncn3C2CCCCC2)c2nc[nH]c(=O)c21 [Example 80, 7-(1-Cyclohexyl-1H-benzimidazol-5-yl)-5-(3-dimethylamino-propyl)-3,5-dihydro-pyrrolo[3,2-d]pyrimidin-4-one] | 1500 | 55 | 620 | 270
7 | O=c1[nH]cnc2c(-c3ccc4c(c3)ncn4C3CCCCC3)cn(C3CCOCC3)c12 [Example 81, 7-(1-Cyclohexyl-1H-benzimidazol-5-yl)-5-(tetrahydro-pyran-4-yl)-3,5-dihydro-pyrrolo[3,2-d]pyrimidin-4-one] | 2500 | 170 | 300 | 76
8 | CC(C)N1CCC(n2cc(-c3ccc4c(c3)ncn4C3CCCCC3)c3nc[nH]c(=O)c32)CC1 [Example 82, 7-(1-Cyclohexyl-1H-benzimidazol-5-yl)-5-(1-isopropyl-piperidin-4-yl)-3,5-dihydro-pyrrolo[3,2-d]pyrimidin-4-one] | 1900 | 100 | 380 | 56

From EP2913333A1 (priority 2014, dated 2015)
